Source: patent US20260098008A1, “COVALENT, CHEMOGENETIC ACTIVATORS FOR K2P POTASSIUM CHANNELS AND USES THEREOF” (THE REGENTS OF THE UNIVERSITY OF CALIFORNIA, priority 2022, published 2026)
Numbering of substitutions follows the chain as printed.

What was measured:
Test in all cases: Single channel recordings from HEK293 cells in cell attached mode
Assay type in all cases: cell-based
Conditions in all cases: 20 μM; for Change of open probability (Po activator/Po control): cell-attached, -100 mV
[1] = biological target: T1, CG*-CG* tandem K2P2.1 (TREK-1) (Mus musculus, UniProt P97438, S146C)
T1 construct: expressed in transfected cells; host or cells: Xenopus laevis oocytes injected with mRNA
T1 sequence (P97438 1-411 isoform P97438-2 S131C) 1: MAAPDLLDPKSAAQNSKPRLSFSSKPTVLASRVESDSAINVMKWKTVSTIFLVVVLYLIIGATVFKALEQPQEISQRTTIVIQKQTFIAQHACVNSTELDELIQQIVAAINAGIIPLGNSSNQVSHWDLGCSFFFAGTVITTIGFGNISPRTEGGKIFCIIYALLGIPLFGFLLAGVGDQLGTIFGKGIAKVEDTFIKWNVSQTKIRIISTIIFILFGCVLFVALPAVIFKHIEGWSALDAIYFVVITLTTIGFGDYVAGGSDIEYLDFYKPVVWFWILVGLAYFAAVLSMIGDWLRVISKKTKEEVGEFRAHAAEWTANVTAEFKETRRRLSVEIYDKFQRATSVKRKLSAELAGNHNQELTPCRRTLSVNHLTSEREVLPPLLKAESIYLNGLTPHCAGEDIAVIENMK
T1 sequence (P97438 1-411 isoform P97438-2 S131C) 2: T1 sequence (P97438 1-411 isoform P97438-2 S131C) 1
From the text: (§1) Mouse K2P2.1 (TREK-1) (Genbank accession number: NP_034737.2), mouse K2P10.1 (TREK-2) (NM_001316665.1), mouse K2P4.1 (TRAAK) (NM_008431.3), human K2P4.1 (TRAAK) (NM_033310.2) and mouse K2P18.1(TRESK) (NM_207261.3) were used for this study. Point mutations were introduced by site-directed mutagenesis using custom primers and confirmed by sequencing before use. For studies using Xenopus oocytes, K2P channels were subcloned into a previously reported pGEMHE/pMO vector (46). For expression in HEK293 cells, mouse K2P2.1 (TREK-1) and mutants were expressed from a previously described pIRES2-EGFP vector in HEK293 cells (46,47). K2P2.1 (TREK-1) tandems were constructed by connecting the open reading frames for the individual subunits with a linker encoding the […] (SEQ ID NO: 19) sequence. Tandems used for HEK293 cells included an N-terminal HA tag ([…] (SEQ ID NO: 20)) on the first subunit.
(§2) Single-channel recordings of K2P2.1 (TREK-1) tandem mutants were recorded in cell-attached mode using HEK293 cells 48 h after transfection. Acquisition and analysis was preformed using pCLAMP9 and an Axopatch 200B amplifier. Pipettes were pulled using a laser-based micropipette puller (P-2000, Sutter Instruments). Electrode resistance after filling with pipette internal solution ranged from 6 to 10 MΩ. Pipette solution contained the following: 150 mM KCl, 3.6 mM CaCl2, 10 mM HEPES (pH 7.4 with KOH). The bath solution was identical to the pipette solution. Po was measured from 30-120 s recordings of K2P2.1 (TREK-1) activity holding at −100 mV. Channel conductance of K2P2.1 (TREK-1) tandems were measured from 30-60s recordings at either −100 mV or +50 mV holding potential. Recordings of CAT335 activated channels were obtained by bath applying 20 μM CAT335 for 2 min to the coverslip before transferring to the recording chamber. This was necessary as application of CAT335 via perfusion or through the pipette solution activated slowly (>5 min), making it difficult to measure Po from fully activated channels. BL-1249 was applied at 20 μM in the bath solution via perfusion at 3 mL min^−1 (2-4 min). Data were analyzed using Clampfit 11 and GraphPad Prism 9.

[2] = biological target: T2, CG*-WT tandem K2P2.1 (TREK-1) (Mus musculus, UniProt P97438, S146C)
T2 construct: expressed in transfected cells; host or cells: Xenopus laevis oocytes injected with mRNA
T2 sequence (P97438 1-411 isoform P97438-2 S131C): T1 sequence (P97438 1-411 isoform P97438-2 S131C) 1
T2 sequence (P97438 1-411 isoform P97438-2): T1 sequence (P97438 1-411 isoform P97438-2 S131C) 1 with C131S
From the text: as §1, §2

[3] = biological target: T3, WT-WT tandem K2P2.1 (TREK-1) (Mus musculus, UniProt P97438)
T3 construct: expressed in transfected cells; host or cells: Xenopus laevis oocytes injected with mRNA
T3 sequence (P97438 1-411 isoform P97438-2) 1: T1 sequence (P97438 1-411 isoform P97438-2 S131C) 1 with C131S
T3 sequence (P97438 1-411 isoform P97438-2) 2: T1 sequence (P97438 1-411 isoform P97438-2 S131C) 1 with C131S
From the text: as §1, §2

Row | Structure (SMILES) | Change of open probability (Po activator/Po control) [1] | Change of open probability (Po activator/Po control) [2] | Change of open probability (Po activator/Po control) [3] | Effect on single channel conductance ([1]; -100 mV and +50 mV) | Effect on single channel conductance ([2]; -100 mV and +50 mV) | Effect on single channel conductance ([3]; -100 mV and +50 mV)
1 | c1ccc(-c2nn[nH]n2)c(Nc2cccc3c2CCCC3)c1 [BL-1249, reference compound] | large increases in Po | large increases in Po | large increases in Po |  |  | 
2 | O=C(NCc1ccc(Cl)cc1Cl)c1ccc(N2C(=O)C=CC2=O)cc1 [CAT335] | 7.8 | 6.3 | no impact on open probability | minimal to no effect on single channel conductance | minimal to no effect on single channel conductance | minimal to no effect on single channel conductance
